Publication PMC3523108 (European biophysics journal : EBJ, 2009)

Target: bovine serum albumin (BSA) (Bos taurus, UniProt P02769)
Type: binding
Settings: slope of log((F0−F)/F) vs log[Q], Eq. 2; sensitizer 10^−6–7 × 10^−6 M

bovine serum albumin (BSA), sequence (P02769 25-607): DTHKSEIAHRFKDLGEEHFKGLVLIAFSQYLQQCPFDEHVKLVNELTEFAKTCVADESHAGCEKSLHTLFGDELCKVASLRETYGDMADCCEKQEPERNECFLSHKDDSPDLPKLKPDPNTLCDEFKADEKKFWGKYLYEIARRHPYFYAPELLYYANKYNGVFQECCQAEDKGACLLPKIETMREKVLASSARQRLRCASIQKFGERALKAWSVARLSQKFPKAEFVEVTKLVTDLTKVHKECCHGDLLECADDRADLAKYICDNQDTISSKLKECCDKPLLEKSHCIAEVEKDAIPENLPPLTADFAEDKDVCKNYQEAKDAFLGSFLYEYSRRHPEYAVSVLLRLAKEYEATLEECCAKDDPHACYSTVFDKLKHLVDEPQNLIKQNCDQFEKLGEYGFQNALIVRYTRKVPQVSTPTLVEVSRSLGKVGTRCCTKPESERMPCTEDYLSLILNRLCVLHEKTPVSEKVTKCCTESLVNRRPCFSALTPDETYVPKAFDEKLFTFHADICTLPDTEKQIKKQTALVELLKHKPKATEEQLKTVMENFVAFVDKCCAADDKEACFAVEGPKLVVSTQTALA

With `C=CC1=C(C)c2cc3[nH]c(cc4nc(cc5[nH]c(cc1n2)c(C)c5CCC(=O)O)C(CCC(=O)O)=C4C)c(C)c3C=C` [PP3, Protoporphyrin IX] the “n (number of binding sites in BSA)” value was 0.993 ± 0.082.
